Data taken from patent US20110117588A1, “METHOD OF PREDICTING DRUG-INDUCED PHOSPHOLIPIDOSIS” (KYUSHU UNIVERSITY, NATIONAL UNIVERSITY CORPORATION, priority 2007, published 2011).
Like-named read-outs stand apart in the source and are kept apart here.

How the values were obtained:
NRK cells [1] = experiment: β-hexosaminidase activity in the medium after exposure of NRK cells
From the text: On the other hand, the activity of lysosomal enzyme can be measured using an activity measurement method by known per se for each enzyme. For example, lysosomal enzyme can be quantified by contacting a sample with a substrate compound for a lysosomal enzyme, which emits fluorescence or develops color by an enzyme reaction, and measuring the intensity of the resulting fluorescence or developed color by a fluorometer, spectrophotometer and the like. For example, as a measurement method of β-hexosaminidase, β-galactosidase, β-glucuronidase or β-mannosidase, the method described in The EMBO Journal, 12: 5219-5223 (1993) can be mentioned, as a measurement method of cathepsin D, the method described in J. Biochem, 125: 1137-1143 (1999) can be mentioned, and as a measurement method of cathepsin B/L, the method described in Methods in Enzymology, 80: 535-561 (1981) can be mentioned.
Furthermore, the activity of β-hexosaminidase in the medium was measured by a conventional method.

NRK cells [2] = system: NRK cells
NRK cells [3] = experiment: Swelling of late endosome/lysosome (LGP85 staining) and phospholipid accumulation (Nile Red) in NRK cells; type: cell-based, rat
Description: The cells were cultured in a DMEM medium supplemented with lipoprotein-deficient serum to 10% instead of normal fetal bovine serum, and morphological changes of lysosome and the presence or absence of phospholipid accumulation due to exposure to AD under the conditions free of extracellular supply of lipoprotein were examined.

NRK cells [4] = experiment: Extracellular and intracellular lysosomal enzyme activity after exposure of NRK cells; type: cell-based, rat; conditions: 24 hr
Description: NRK cells were exposed to 0 (solvent control), 5, 10, 20, 40 and 80 μM of AD for 24 hr, and lysosomal enzyme activities in the cell and medium were measured by a conventional method.
(§1) On the other hand, CTL is biosynthesized as an about 39 kDa proenzyme, and converted to a 30 kDa single strand intermediate enzyme and a 23 kDa and 7 kDa double stranded mature enzyme during the process of intracellular transport. […] While CTD increased the enzyme activity in the medium in an AD dose-dependent manner, CTL caused no change. The reason therefor is considered to be the measurement of CTD activity at pH 4.0 where autocatalytic processing occurs, and the measurement of CTL activity at pH 6.0 where processing scarcely occurs.

NRK cells [5] = experiment: Intracellular and extracellular cathepsin D and cathepsin L levels by Western blotting; type: cell-based, rat
Description: In the case of cathepsin D (CTD), it is biosynthesized as an about 45 kDa proenzyme in rat cell (NRK), and processed in the acidic environment of lysosome to become an about 43 kDa mature enzyme.
Therefore, NRK cells were exposed to 0 (control), 5, 10, 20, 40 and 80 μM of AD for 24 hr, and lysosomal enzyme (CTD and cathepsin L (CTL)) levels in the cell and medium were measured by Western blotting using an antibody to these enzymes. To be specific, immunoprecipitates against anti-CTD antibody in cell lysate and medium or the cell lysate and medium for CTL were subjected to Western blot analysis using an anti-CTD antibody or anti-CTL antibody. […] Therefore, it was also shown that increased lysosomal enzyme in the medium was not caused by extracellular leakage due to cell damage and the like, but by selective extracellular secretion thereof.
as §1

NRK cells [6] = experiment: Intracellular LC3 level by Western blotting and confocal microscopy; type: cell-based; conditions: 20 μM; for LC3-II level: Western blot
Description: NRK cells were exposed to 20 μM of AD for 1, 3, 6, 12 and 24 hr, and the level of LC3 (microtuble-associated protein 1 light chain 3), which is an autophagy marker, in each cell was measured by Western blotting using an antibody to the protein. That is, cell lysate was subjected to Western blot analysis using an anti-LC3 antibody.
NRK cells were exposed to various PLIDs for 24 hr, and the intracellular level of LC3 was measured by western blotting.

NRK cells [7] = experiment: Localization of MPR in NRK cells by confocal laser microscope with antibody; conditions: 24 hr exposure, concentration at which localization altered

## CN(C)CCCN1c2ccccc2Sc2ccc(Cl)cc21 [chlorpromazine]
NRK cells [1]; rat, 24 h
  β-hex activity increase: 20 µM

## CNCCCC12CCC(c3ccccc31)c1ccccc12 [maprotiline]
NRK cells [1]; rat, 24 h
  β-hex activity increase: >20 µM
NRK cells [2]; rat, 24 h
  alteration of MPR localization: 20 µM

## C1CCC(C(CC2CCCCN2)C2CCCCC2)CC1 (stereo not drawn) [perhexiline]
NRK cells [1]; rat, 24 h
  β-hex activity increase: 5 µM
NRK cells [2]; rat, 24 h
  alteration of MPR localization: 2.5 µM

## CC1(C)S[C@@H]2[C@H](NC(=O)[C@H](N)c3ccc(O)cc3)C(=O)N2[C@H]1C(=O)O [amoxicillin]
NRK cells [1]
  β-hex activity increase: none
NRK cells [2]
  alteration of MPR localization: none

## CCN(CC)CCO[C@H]1CC[C@@]2(C)C(=CC[C@@H]3[C@@H]2CC[C@]2(C)C(=O)CC[C@@H]32)C1 [U18666A]
NRK cells [1]; rat, 24 h
  β-hex activity increase: 3 µg/mL
NRK cells [2]; rat, 24 h
  alteration of MPR localization: 3 µg/mL

## CC[C@H]1OC(=O)[C@H](C)[C@@H](O[C@H]2C[C@@](C)(OC)[C@@H](O)[C@H](C)O2)[C@H](C)[C@@H](O[C@@H]2O[C@H](C)C[C@H](N(C)C)[C@H]2O)[C@](C)(O)C[C@@H](C)C(=O)[C@H](C)[C@@H](O)[C@]1(C)O [erythromycin]
NRK cells [1]; rat, 24 h
  β-hex activity increase: >400 µM

## CCCCc1oc2ccccc2c1C(=O)c1cc(I)c(OCCN(CC)CC)c(I)c1 [amiodarone]
NRK cells [1]; rat, 24 h
  β-hex activity increase: >10 µM
NRK cells [3]; NRK cells in DMEM with 10% lipoprotein-deficient serum
  accumulation of phospholipid: accumulation of phospholipid was found at the site
NRK cells [3]; NRK cells in DMEM with 10% lipoprotein-deficient serum, various concentrations, 24 hr
  late endosome/lysosome morphology (LGP85): enlargement of late endosome/lysosome occurred in an AD dose-dependent manner
NRK cells [3]; NRK cells, 24 hr exposure
  accumulation of phospholipid (Nile Red staining): accumulation of phospholipid was found
  late endosome/lysosome morphology (LGP85 antibody): enlarged
NRK cells [4]; 5-80 μM
  activity of α-glucosidase (endoplasmic reticulum enzyme): changed only at 80 μM
  intracellular lysosomal enzyme activity: decreased
  lysosomal enzyme activity in the medium: increased in an AD dose-dependent manner
NRK cells [4]; 5-80 μM, measured at pH 6.0
  CTL activity in the medium: changed only at 80 μM
  intracellular CTL activity: decreased in a dose-dependent manner
NRK cells [4]
  concentration showing cytotoxicity: 80 µM
NRK cells [5]
  CTL proenzyme in the medium: only proenzyme increased in an AD dose-dependent manner
  cathepsin D proenzyme in the medium: only proenzyme increased in an AD dose-dependent manner
  ratio of CTL mature enzyme in the cell: decreased in an AD dose-dependent manner
  ratio of CTL proenzyme in the cell: the ratio of proenzyme increased
  ratio of intracellular cathepsin D proenzyme: increased in a dose-dependent manner
NRK cells [6]; 1-24 hr, confocal laser microscope
  granular staining with LC3 in the cell: increased in a time-dependent manner
NRK cells [6]; 12 and 24 hr
  LC3-II level: remarkably increased
NRK cells [6]; 3 hr
  LC3-II level: increased
NRK cells [2]
  alteration of MPR localization: altered
NRK cells [2]; rat, 24 h
  alteration of MPR localization: >10 µM

## Cl.N [NH4Cl, ammonium chloride]
NRK cells [1]; NRK cells, 24 hr exposure, concentration at which β-hexosaminidase activity in medium increased
  β-hex activity increase: >1000 µM
NRK cells [5]; NRK cells, 24 hr, Western blot of cell lysate immunoprecipitate
  ratio of intracellular cathepsin D proenzyme: the ratio of intracellular proenzyme increased
NRK cells [5]; NRK cells, 24 hr, Western blot of medium immunoprecipitate
  cathepsin D proenzyme in the medium: the amount of proenzyme secreted in the medium increased
NRK cells [7]
  alteration of MPR localization: >5 mM

## CC/C(=C(\c1ccccc1)c1ccc(OCCN(C)C)cc1)c1ccccc1 [tamoxifen]
NRK cells [1]; rat, 24 h
  β-hex activity increase: >10 µM
NRK cells [2]; rat, 24 h
  alteration of MPR localization: 10 µM

## CCN(CC)CCOc1ccc2c(c1)C(=O)c1cc(OCCN(CC)CC)ccc1-2 [tilorone]
NRK cells [1]; rat, 24 h
  β-hex activity increase: >2.5 µM
NRK cells [5]
  cathepsin D proenzyme in the medium: the amount of proenzyme secreted in the medium increased
  ratio of intracellular cathepsin D proenzyme: the ratio of intracellular proenzyme increased
NRK cells [2]; rat, 24 h
  alteration of MPR localization: >5 µM

## CC(=O)Oc1ccccc1C(=O)O [aspirin]
NRK cells [1]
  β-hex activity increase: none
NRK cells [2]
  alteration of MPR localization: none

## O=C(CCCN1CCC(O)(c2ccc(Cl)cc2)CC1)c1ccc(F)cc1 [haloperidol]
NRK cells [1]; rat, 24 h
  β-hex activity increase: >10 µM
NRK cells [2]; rat, 24 h
  alteration of MPR localization: >20 µM

## C[C@H](CS)C(=O)N1CCC[C@H]1C(=O)O [captopril]
NRK cells [1]
  β-hex activity increase: none

## CSc1ccc2c(c1)N(CCC1CCCCN1C)c1ccccc1S2 (stereo not drawn) [thioridazine]
NRK cells [1]; rat, 24 h
  β-hex activity increase: 10 µM
NRK cells [2]; rat, 24 h
  alteration of MPR localization: 10 µM

## CN(C)CCCN1c2ccccc2CCc2ccccc21 [imipramine]
NRK cells [1]; rat, 24 h
  β-hex activity increase: >40 µM

## C=C[C@H]1C[N@@]2CC[C@H]1C[C@@H]2[C@@H](O)c1ccnc2ccc(OC)cc12 [quinidine]
NRK cells [1]; rat, 24 h
  β-hex activity increase: 100 µM

## CCN(CC)CCCC(C)Nc1ccnc2cc(Cl)ccc12 (stereo not drawn) [chloroquine]
NRK cells [1]; rat, 24 h
  β-hex activity increase: >5 µM
NRK cells [5]
  cathepsin D proenzyme in the medium: the amount of proenzyme secreted in the medium increased
  ratio of intracellular cathepsin D proenzyme: the ratio of intracellular proenzyme increased
NRK cells [2]; rat, 24 h
  alteration of MPR localization: >5 µM
